Experimental data as given in patent publication US12185723B2, “Herbicidally active 3-phenylisoxazoline-5-carboxamides of s-containing cyclopentenylcarboxylic esters” (Bayer Aktiengesellschaft, priority 2019, dated 2025).

How the values were obtained:
Type in all cases: in vivo
[1] = system: Amaranthus retroflexus; assay: Post-emergence herbicidal action against AMARE; conditions: 20 g a.i./ha
Description: (§1) Post-Emergence Herbicidal Action Against Harmful Plants and Crop Plant Compatibility Seeds of monocotyledonous and dicotyledonous weeds and crop plants are placed in sandy loam in plastic or wood-fibre pots, covered with soil and cultivated in a greenhouse under controlled growth conditions. 2 to 3 weeks after sowing, the test plants are treated at the one-leaf stage. The compounds of the invention, formulated in the form of wettable powders (WP) or as emulsion concentrates (EC), are then sprayed onto the green parts of the plants as aqueous suspension or emulsion with addition of 0.5% additive at a water application rate of 600 l/ha (converted). After the test plants have been kept in the greenhouse under optimum growth conditions for about 3 weeks, the activity of the preparations is rated visually in comparison to untreated controls. For example, 100% activity=the plants have died, 0% activity=like control plants. [table]

[2] = system: Echinochloa crus-galli; assay: Post-emergence herbicidal action against ECHCG; conditions: 20 g a.i./ha, visual rating about 3 weeks after treatment
Description: as §1

[3] = system: Alopecurus myosuroides; assay: Post-emergence herbicidal action against ALOMY; conditions: 20 g a.i./ha, visual rating about 3 weeks after treatment
Description: as §1

[4] = system: Lolium rigidum; assay: Post-emergence herbicidal action against LOLRI; conditions: 20 g a.i./ha, visual rating about 3 weeks after treatment
Description: as §1

[5] = system: Avena fatua; assay: Post-emergence herbicidal action against AVEFA; conditions: 20 g a.i./ha, visual rating about 3 weeks after treatment
Description: as §1

[6] = system: Polygonum convolvulus; assay: Post-emergence herbicidal action against POLCO; conditions: 20 g a.i./ha
Description: as §1

[7] = system: Pharbitis purpurea; assay: Post-emergence herbicidal action against PHBPU; conditions: 20 g a.i./ha
Description: as §1

[8] = system: Matricaria inodora; assay: Post-emergence herbicidal action against MATIN; conditions: 20 g a.i./ha
Description: as §1

[9] = system: Abutilon theophrasti; assay: Post-emergence herbicidal action against ABUTH; conditions: 20 g a.i./ha, visual rating about 3 weeks after treatment
Description: as §1

[10] = system: DIGSA; assay: Post-emergence herbicidal action against DIGSA; conditions: 20 g a.i./ha, visual rating about 3 weeks after treatment
Description: as §1, with “plants.” for “plants. [table]”

[11] = system: Setaria viridis; assay: Post-emergence herbicidal action against SETVI; conditions: 20 g a.i./ha, visual rating about 3 weeks after treatment
Description: as §1

[12] = system: Veronica persica; assay: Post-emergence herbicidal action against VERPE; conditions: 20 g a.i./ha
Description: as §1

Compound	Herbicidal action against [%] AMARE [1]	Herbicidal action against [%] ECHCG [2]	Herbicidal action against [%] ALOMY [3]	Herbicidal action against [%] LOLRI [4]	Herbicidal action against [%] AVEFA [5]	Herbicidal action against [%] POLCO [6]	Herbicidal action against [%] PHBPU [7]	Herbicidal action against [%] MATIN [8]	Herbicidal action against [%] ABUTH [9]	Herbicidal action against [%] DIGSA [10]	Herbicidal action against [%] SETVI [11]	Herbicidal action against [%] VERPE [12]
C[S+]([O-])CCOC(=O)C1C=CC(NC(=O)C2(C)CC(c3cc(F)cc(F)c3)=NO2)C1 (mixture of isomers) [Example I-66]	80%	80%	90%	80%	80%	80%	80%	80%	–	–	–	–
CCSCCOC(=O)C1C=CC(NC(=O)C2(C)CC(c3cc(F)cc(F)c3)=NO2)C1 (stereo not drawn) [Example I-02]	90%	90%	100%	90%	90%	90%	80%	80%	90%	90%	90%	90%
CC1(C(=O)NC2C=CC(C(=O)OCCSCc3ccccc3)C2)CC(c2cc(F)cc(F)c2)=NO1 (stereo not drawn) [Example I-07]	90%	90%	90%	90%	90%	90%	80%	80%	80%	90%	90%	90%
CC(C)CSCCOC(=O)C1C=CC(NC(=O)C2(C)CC(c3cc(F)cc(F)c3)=NO2)C1 (stereo not drawn) [Example I-08]	90%	90%	100%	90%	90%	90%	90%	80%	90%	90%	90%	80%
CC(C)SCCOC(=O)C1C=CC(NC(=O)C2(C)CC(c3cc(F)cc(F)c3)=NO2)C1 (stereo not drawn) [Example I-10]	90%	90%	100%	100%	90%	90%	80%	80%	90%	90%	90%	90%
C=CCSCCOC(=O)C1C=CC(NC(=O)C2(C)CC(c3cc(F)cc(F)c3)=NO2)C1 (stereo not drawn) [Example I-11]	90%	90%	100%	100%	90%	90%	80%	80%	90%	90%	90%	90%
CC1(C(=O)NC2C=CC(C(=O)OCCSCC(F)(F)F)C2)CC(c2cc(F)cc(F)c2)=NO1 (stereo not drawn) [Example I-12]	–	80%	90%	80%	–	80%	80%	80%	–	80%	80%	–
CC1(C(=O)NC2C=CC(C(=O)OCCSC(F)(F)F)C2)CC(c2cc(F)cc(F)c2)=NO1 (stereo not drawn) [Example I-13]	–	–	90%	80%	90%	–	–	80%	80%	80%	80%	80%
CC1(C(=O)NC2C=CC(C(=O)OCCSc3ccccc3)C2)CC(c2cc(F)cc(F)c2)=NO1 (stereo not drawn) [Example I-16]	–	80%	90%	–	90%	80%	80%	80%	80%	80%	80%	80%
COC1(C(=O)NC2C=CC(C(=O)OCCSC)C2)CC(c2cc(F)cc(F)c2)=NO1 (stereo not drawn) [Example I-19]	80%	90%	80%	90%	90%	80%	80%	80%	80%	90%	90%	90%
COC1(C(=O)NC2C=CC(C(=O)OCCSC)C2)CC(c2cc(F)cc(F)c2)=NO1 (stereo not drawn) [Example I-20]	80%	90%	90%	90%	90%	–	80%	80%	80%	80%	80%	80%
COC1(C(=O)NC2C=CC(C(=O)OCCSC(=O)C(C)C)C2)CC(c2cc(F)cc(F)c2)=NO1 (stereo not drawn) [Example I-23]	80%	90%	90%	90%	90%	80%	80%	80%	80%	90%	80%	90%
COC1(C(=O)NC2C=CC(C(=O)OCCSC(=O)N(C)C)C2)CC(c2cc(F)cc(F)c2)=NO1 (stereo not drawn) [Example I-24]	90%	90%	80%	90%	90%	80%	80%	80%	80%	80%	90%	100%
C=CC1(C(=O)NC2C=CC(C(=O)OCCSC)C2)CC(c2cc(Cl)cc(Cl)c2)=NO1 (stereo not drawn) [Example I-55]	90%	–	100%	–	80%	80%	80%	80%	80%	80%	90%	90%
CSCCOC(=O)C1C=CC(NC(=O)C2(CCl)CC(c3cc(C)cc(F)c3)=NO2)C1 (stereo not drawn) [Example I-57]	–	–	80%	–	–	–	–	80%	–	–	–	–
CSCCOC(=O)C1C=CC(NC(=O)C2(CF)CC(c3cc(F)cc(C#N)c3)=NO2)C1 (stereo not drawn) [Example I-65]	80%	80%	90%	80%	80%	90%	–	80%	80%	–	–	80%
